Entries after “also recorded” stand apart in the source; their conditions may differ. Starred links: 1 amine or outer side, 2 acyl side, 3 side chain; linkers in the order of their positions; H or OH if unused. Non-standard residues stand in square brackets, D forms with d. Residues, ends and D or L forms follow the SMILES beside them. Groups on a side chain read outwards from the residue. *: point of attachment. Ethylenediamine = C(CN[*:2])N[*:1]; Hyp = O=C(O)[C@@H]1C[C@@H](O)CN1; Phg = N[C@H](C(=O)O)c1ccccc1; CO = O=C([*:1])[*:2]; Bn = c1ccc(C*)cc1
Legend:
[1] = tested on: IGF-I receptor, ERK, and AKT; test: Western blots of phosphorylation of IGF-I receptor, ERK and AKT in treated Brca1LoxP/Brca1LoxP mice; format: in vivo; conditions: 4 month old Brca1LoxP/Brca1LoxP females; 7 days; PQ401 100 mg/kg thrice a week intraperitoneal; pasireotide 10 μg/kg/h by Alzet pump
Description: Western blots showing that the increased phosphorylation of IGF-I receptor and its downstream mediators ERK and AKT in Brca1^LoxP/Brca1^LoxP females is reduced by treatment with 100 mg/kg PQ401 thrice a week and 10 μg/kg/h pasireotide. The two WT samples are from age-matched, untreated C57Bl/6 control mice. PQ401 was administered by intraperitoneal injections, pasireotide by Alzet pump Model 2001. For both drugs, the course of treatment was 7 days.
FIG. 6 depicts Western blots showing the effects of IGF-I inhibition on the phosphorylation of IGF-I receptor, ERK, and AKT in 4 month old Brca1^LoxP/Brca1^LoxP. The increased phosphorylation of IGF-I receptor and its downstream mediators ERK and AKT in Brca1^LoxP/Brca1^LoxP females is reduced by treatment with 100 mg/kg PQ401 thrice a week and 10 μg/kg/h pasireotide. The two WT samples are from age-matched, untreated C57Bl/6 control mice. PQ401 was administered by intraperitoneal injections, pasireotide by Alzet pump Model 2001. For both drugs, the course of treatment was 7 days.

[2] = target: IGF-I receptor (Homo sapiens, UniProt P08069); conditions: cited from earlier work
[3] = tested on: Brca1^LoxP/Brca1^LoxP mice; test: Mammary gland phenotype (whole mounts, hematoxylin-eosin sections, duct width, HANs) of treated Brca1LoxP/Brca1LoxP mice; format: in vivo; conditions: for mammary gland phenotype (whole mounts, histology): 7 days; for width of mammary gland ducts / ductal dilatation: 10 μg/kg/h for 7 days by Alzet pump, vs vehicle (water)
Description: Representative whole mounts of mammary glands from 4 month old Brca1^LoxP/Brca1^LoxP females treated with water (upper photomicrographs) or 10 μg/kg/h pasireotide (lower photomicrographs) for 7 days. Both water and pasireotide were administered by Alzet pump Model 2001.
FIG. 8 depicts effects of pasireotide on the mammary gland phenotype of Brca1^LoxP/Brca1^LoxP mice. Representative hematoxylin-eosin sections of mammary glands from 4 month old Brca1^LoxP/Brca1^LoxP females treated with water (left) or pasireotide (center and right) for 7 days. Both water and pasireotide were administered by Alzet pump Model 2001. The dosage of pasireotide was 10 μg/kg/h.
FIG. 9 depicts effects of pasireotide on duct width of mammary glands of Brca1^LoxP/Brca1^LoxP mice. […] Both water and pasireotide were administered by Alzet pump Model 2001. Six animals were treated with pasireotide and five animals were treated with water (control). […]
The present inventor has made the surprising discovery that mice comprising loxP sites flanking exon 11 of the BRCA1 gene (formally known as Brca1^loxP/loxP, but also referred to herein as LoxP mice) display profoundly abnormal mammary gland development at an early age. LoxP mice were acquired from the National Institutes of Health Mouse Repository. The strain is Stock Brcal^tm2Cxd and the Strain code is 01XC8. Mice were maintained in accordance with the standards established by the Association for Assessment and Accreditation of Laboratory Animal Care (AAALAC) (New York University).
Representative whole mounts of mammary glands from 4 month old Brca1^LoxP/Brca1^LoxP females treated with water (upper photomicrographs) or 10 μg/kg/h pasireotide (lower photomicrographs) for 7 days are shown. Both water and pasireotide were administered by Alzet pump Model 2001. […] These findings were confirmed on a histological level as shown in FIG. 8 which depicts representative hematoxylin-eosin sections of mammary glands from 4 month old Brca1^LoxP/Brca1^LoxP females treated with water (left) or pasireotide (center and right) for 7 days. Both water and pasireotide (10 μg/kg/h) were administered by Alzet pump Model 2001. […] Both water and pasireotide were administered by Alzet pump Model 2001. […]

[4] = tested on: Ki67-positive epithelial cells in the mammary glands; test: Ki67 immunohistochemistry of mammary epithelial cells in treated Brca1LoxP/Brca1LoxP mice; format: in vivo; conditions: 4 month old Brca1LoxP/Brca1LoxP mice; 7 days of treatment; vs vehicle
Description: The frequency of Ki67-positive mammary epithelial cells in C57Bl/6 controls treated with water (WT, water) is also presented. *, p<0.05 as compared with WT, water; **, p<0.01 as compared with WT, water; a, p<0.05 as compared with LoxP, water; b, p<0.01 as compared with LoxP, water.
The frequency of Ki67-positive mammary epithelial cells in C57Bl/6 controls treated with water (WT, water) is also presented. *, p<0.05 as compared with WT, water; **, p<0.01 as compared with WT, water; a, p<0.05 as compared with LoxP, water; b, p<0.01 as compared with LoxP, water. […] This finding is significant because Ki67 is a cancer antigen that is found in growing, dividing cells, but is absent in the resting phase of cell growth. Accordingly, Ki67 is viewed as a good tumor cell marker.

[5] = tested on: breast cancer; conditions: women with certain hyperplastic lesions of the breast; clinical evidence; cited from earlier work
[6] = tested on: growth hormone and estradiol induced mammary hyperplasia; conditions: Kleinberg et al. 2011; cited from earlier work
[7] = tested on: mammary development in rats; conditions: Ruan et al. 2006; cited from earlier work
[8] = tested on: somatostatin receptors; conditions: cited from earlier work; for somatostatin receptors bound: of the 5 somatostatin receptors
[9] = 4 month old Brca1LoxP/Brca1LoxP females, pasireotide 10 μg/kg/h Alzet pump vs water, PQ401 intraperitoneal vs 8% ethanol/Tween 80 in PBS

Chain of IGF-I receptor (P08069 31-1367, species assumed): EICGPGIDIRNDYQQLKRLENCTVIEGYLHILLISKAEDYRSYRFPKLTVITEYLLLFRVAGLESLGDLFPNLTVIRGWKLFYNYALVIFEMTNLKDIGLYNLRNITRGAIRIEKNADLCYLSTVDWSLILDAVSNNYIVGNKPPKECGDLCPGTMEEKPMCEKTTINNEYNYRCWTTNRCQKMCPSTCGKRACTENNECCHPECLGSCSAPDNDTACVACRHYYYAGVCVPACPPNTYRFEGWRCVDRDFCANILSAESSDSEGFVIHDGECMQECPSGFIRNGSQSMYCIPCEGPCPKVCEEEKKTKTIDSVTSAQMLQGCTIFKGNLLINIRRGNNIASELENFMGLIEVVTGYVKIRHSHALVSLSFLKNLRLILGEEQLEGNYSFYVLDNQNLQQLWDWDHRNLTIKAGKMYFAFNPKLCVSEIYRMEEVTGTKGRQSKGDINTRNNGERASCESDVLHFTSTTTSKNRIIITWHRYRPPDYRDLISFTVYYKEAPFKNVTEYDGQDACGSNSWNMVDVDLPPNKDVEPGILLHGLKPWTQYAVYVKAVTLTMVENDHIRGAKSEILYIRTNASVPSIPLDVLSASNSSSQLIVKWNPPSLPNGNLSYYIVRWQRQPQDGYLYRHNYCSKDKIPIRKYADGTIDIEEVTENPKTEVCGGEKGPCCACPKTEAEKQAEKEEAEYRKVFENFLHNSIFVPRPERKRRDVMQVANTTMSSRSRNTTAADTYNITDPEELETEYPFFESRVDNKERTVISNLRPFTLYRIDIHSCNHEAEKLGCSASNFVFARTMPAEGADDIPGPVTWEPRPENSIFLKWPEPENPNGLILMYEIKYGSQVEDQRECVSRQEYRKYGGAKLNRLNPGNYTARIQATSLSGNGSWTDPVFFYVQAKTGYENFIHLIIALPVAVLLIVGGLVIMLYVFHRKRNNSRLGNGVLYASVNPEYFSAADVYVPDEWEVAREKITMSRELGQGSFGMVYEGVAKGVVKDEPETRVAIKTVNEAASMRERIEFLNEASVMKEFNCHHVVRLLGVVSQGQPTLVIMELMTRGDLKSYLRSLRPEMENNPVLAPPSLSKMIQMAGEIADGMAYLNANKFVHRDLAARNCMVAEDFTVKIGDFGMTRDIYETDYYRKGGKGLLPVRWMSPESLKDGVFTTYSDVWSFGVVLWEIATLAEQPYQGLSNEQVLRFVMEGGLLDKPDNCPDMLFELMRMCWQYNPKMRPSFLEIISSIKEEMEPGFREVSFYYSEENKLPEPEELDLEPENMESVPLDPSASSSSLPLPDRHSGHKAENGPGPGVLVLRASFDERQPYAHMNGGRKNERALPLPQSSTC

COc1ccc(Cl)cc1NC(=O)Nc1cc(C)nc2ccccc12 [PQ401]
phosphorylation of IGF-I receptor and its downstream mediators ERK and AKT [1]: reduced
IGF-I receptor inhibition [2]: very potent and specific
mammary gland phenotype (whole mounts, histology) [3, 9]: dramatically reduces
Ki67-positive epithelial cells in the mammary glands (cell proliferation) [4]: reduces; also recorded: significantly reduced

CC/C(=C(\c1ccccc1)c1ccc(OCCN(C)C)cc1)c1ccccc1 [tamoxifen]
prevention of the development of cancer [5]: about 50%
growth hormone and estradiol induced mammary hyperplasia [6]: prevent

NCCCC[C@@H]1NC(=O)[C@@H](Cc2c[nH]c3ccccc23)NC(=O)[C@H](c2ccccc2)NC(=O)[C@@H]2C[C@@H](OC(=O)NCCN)CN2C(=O)[C@H](Cc2ccccc2)NC(=O)[C@H](Cc2ccc(OCc3ccccc3)cc2)NC1=O [pasireotide] (cyclo([Hyp]([CO-Ethylenediamine])[Phg][dW]KY(Bn)F))
IRS-1 phosphorylation in the mammary gland (IGF-I action) [7]: reduction
growth hormone secretion from the pituitary [7]: inhibitory effect
mammary development [7]: prevents
phosphorylation of IGF-I receptor and its downstream mediators ERK and AKT [1]: reduced
affinity for SSTR3 and/or SSTR5 receptors [8]: has affinity
somatostatin receptors bound [8]: 4 of the 5
width of mammary gland ducts / ductal dilatation ([3]; 4 month old Brca1LoxP/Brca1LoxP females): effective in decreasing
width of mammary gland ducts / ductal dilatation ([3]; 4 month old Brca1LoxP/Brca1LoxP females, listed as SOM230): significant effect on inhibiting; also recorded: significantly reduced
mammary gland phenotype (whole mounts, histology) [3, 9]: dramatically reduces
formation of HANs (hyperplastic alveolar nodules) ([3]; LoxP mice at 4 months of age treated with SOM230): preventing
number of ducts ([3]; affected LoxP animals, SOM230 or control vehicle for 1 week): unchanged
efficacy compared with tamoxifen in preventing growth hormone and estradiol-induced mammary hyperplasia [6]: at least as effective as tamoxifen
growth hormone and estradiol induced mammary hyperplasia [6]: prevents
Ki67-positive epithelial cells in the mammary glands (cell proliferation) [4]: reduces; also recorded: significantly reduced

somatostatin-14 [SS-14]
somatostatin receptors bound [8]: all
mammary gland phenotype (whole mounts, histology) ([3]; 9 month old Brca1LoxP/Brca1LoxP females, Alzet pump, vs water): reduces
number of HANs ([3]; nine month old LoxP animals treated for a week): impressive reduction

Source: patent publication US8629103B2, “Treatment of non-proliferative cystic disease of the breast” (New York University, priority 2010, dated 2014)
